Data as given in patent EP1464336A1, “Use of tryprostatin A for the reversal of cancer drug resistance” (Humboldt-Universität zu Berlin, priority 2003, dated 2004).
Entries after “also recorded” stand apart in the source; their conditions may differ.

Columns and labels:
[1] = system: drug-sensitive, and drug-resistant gastric carcinoma and breast cancer cells; test: Time course of mitoxantrone accumulation (flow cytometry); type: cell-based, human; settings: 10 µM mitoxantrone and TPS-A for increasing time periods (Fig 5A, 5B)
Experimental: (§1) Cellular mitoxantrone accumulation was determined according to the procedure described in Lage H et al., FEBS Lett 2001;503:179-84. Briefly, 4 x 10^5 cells were seeded out in 6-well plates 78 hours prior to the experiment. Incubation with mitoxantrone (0, 1,5 and 10 µg/ml) was performed for 60 minutes at 37°C and 70-80 % cellular confluence. For kinetics of intracellular enrichment of mitoxantrone, cells were exposed to 10 µg/ml mitoxantrone for 0, 5, 10 and 60 min. Cells were washed with ice-cold PBS, trypsinized and resuspended in 4 °C PBS at a concentration of 4 x 10^5 cells/ml. Intracellular fluorescence of mitoxantrone was determined by flow cytometry (Becton-Dickinson, San Jose, CA). The cells were excited at 480 nm and emission was measured at 630 nm. A minimum of 10^4 cells was analyzed for each sample. All assays were performed at least in three independent experiments, each time with triplicate wells.
To analyze the time course of MDR modulating effects of TPS-A, drug-sensitive, and drug-resistant gastric carcinoma and breast cancer cells were incubated with 10 µM mitoxantrone and TPS-A for increasing time periods.

[2] = system: control cells (EPG85-257P); test: Annexin assay: FITC-Annexin V binding, exposure of endogenous PS (flow cytometry); type: cell-based, human; settings: treatment with Tryprostatin A (data not shown)
Experimental: (§2) To measure exposure of endogenous PS on the cell surface, cells were incubated on ice for 10 minutes in the dark with 9 nM FITC-Annexin V in binding buffer. Two minutes prior to the end of the incubation, propidium iodide (final 1.9 µM) was added. Cells were then washed three times, detached from the dishes through pipetting, and suspended in binding buffer. Measurement was performed with a FACSCalibur flow cytometer (Becton Dickinson, St. Louis, MO) 5 minutes after the end of incubation. Regions were set to exclude subcellular particles, and only single cells were counted (10 000 cells / sample). A further gate excluded damaged cells with elevated propidium iodide staining. Data were analyzed by Becton Dickinson CellQuest software.

[3] = system: BCRP overexpressing cells (EPG85-257RNOV); test: as above; type: cell-based, human; settings: preincubation with 5 µM Tryprostatin A for 30 min at 37°C (Fig. 9, 10)
Experimental: as §2

[4] = system: microtubule-associated protein (MAP)-dependent microtubule assembly; settings: literature (Usui T et al., Biochem J 1998); cited from earlier work
[5] = system: cell cycle progression at the G2/M phase; settings: literature (Cui CB et al.; Usui T et al.); cited from earlier work
[6] = system: drug-sensitive, parental cell line MCF-7; test: Mitoxantrone accumulation assay (flow cytometry); type: cell-based, human; settings: increasing modulator concentrations
Experimental: as §1
(§3) To provide confirmation that the observed resensitization to mitoxantrone of BCRP-overexpressing cells was indeed the result of BCRP inhibition by TPS-A, a mitoxantrone accumulation assay was performed. The known so-called "multispecific" MDR modulator GF120918, inhibiting P-gp- and BCRP activity, was used as a positive control for P-gp- and BCRP antagonism.

[7] = system: parental, drug-sensitive gastric carcinoma cell variant EPG85-257P; test: Mitoxantrone accumulation assay (flow cytometry); type: cell-based, human; settings: TPS-A (Fig 4A)
Experimental: as §1, §3

MCF-7/AdrVp = test: Mitoxantrone accumulation assay (flow cytometry); type: cell-based, human; settings: 50 µM TPS-A
Experimental: as §1, §3

[8] = system: BCRP-transfected cell variant MCF-7/BCRP clone 8; test: Mitoxantrone accumulation assay (flow cytometry); type: cell-based, human; settings: 50 µM TPS-A; compared to drug accumulation level in the untreated, parental control cell line (Fig 4B)
Experimental: as §1, §3

[9] = system: BCRP-positive, atypical MDR gastric carcinoma cell line EPG85-257RNOV; test: Mitoxantrone accumulation assay (flow cytometry); type: cell-based, human; settings: 10 µM TPS-A; mitoxantrone 60 min at 37 °C (Fig 4A)
Experimental: as §1, §3

[10] = system: P-gp-expressing, classical MDR variant EPG85-257RDB; test: Mitoxantrone accumulation assay (flow cytometry); type: cell-based, human; settings: TPS-A (Fig 4A)
Experimental: as §1, §3

With `COc1ccc2c(C[C@@H]3NC(=O)[C@@H]4CCCN4C3=O)c(CC=C(C)C)[nH]c2c1` [TPS-A, tryprostatin A] the “chemosensitizing effects over time (mitoxantrone accumulation)” value [1] was “time-dependent manner”, the “Annexin V binding” value [2] was “not affected” and the “level of Annexin V binding” value [3] was “reduced the level of Annexin V binding to that of control cells; also recorded: reduced to the level found for control cells”. For the same molecule, the “final concentration inhibiting MAP-dependent microtubule assembly / cell cycle progression at the M phase” value [4] was 250 µM, the “final concentration arresting cell cycle progression at the G2/M phase” value [5] was 125 µM and the “effect on drug accumulation” value [6] was “only a weak dosage-depending effect”. The mitoxantrone accumulation [7] was “slightly increased mitoxantrone accumulation”, the “increase of drug accumulation with respect to control cells” value (MCF-7/AdrVp) was 45% and the “inhibition of the mitoxantrone pump activity” value [8] was “completely”. For the same molecule, the “increase to % of the mitoxantrone accumulation level of untreated drug-sensitive cells” value [9] was 40% and the “drug transporter inhibiting effect (mitoxantrone accumulation)” value [10] was “No significant drug transporter inhibiting effect”.
